# In patent publication US9695155B2, “Herbicidal substituted pyrimidinyloxy benzene compounds” (E. I. DU PONT DE NEMOURS AND COMPANY, priority 2013, dated 2017):
# Tests used:
# pigweed = experiment: Test D postemergence; type: in vivo, Amaranthus retroflexus; settings: Amaranthus retroflexus, post-emergence
# Method in brief: (§1)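 Visual rating vs untreated controls, 0 = no effect, 100 = complete control, taken 7–21 d after treatment. Pre: silt loam soil. Post: potting medium, plants 2–18 cm, 1–4 leaf. Formulation: non-phytotoxic solvent mix + surfactant.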
# speedwell = experiment: Test D preemergence; type: in vivo, Veronica persica; settings: Veronica persica, pre-emergence, 16 g ai/ha, scale 0 (no effect) to 100 (complete control), read-out: Plant response rating, Speedwell
# Method in brief: as §1
# canarygrass = experiment: Test D preemergence; type: in vivo, Phalaris minor; settings: Phalaris minor, pre-emergence
# Method in brief: as §1
# blackgrass [1] = experiment: Test D preemergence; type: in vivo, Alopecurus myosuroides; settings: Alopecurus myosuroides, pre-emergence
# Method in brief: as §1
# chickweed = experiment: Test D postemergence; type: in vivo, Stellaria media; settings: Stellaria media, post-emergence
# Method in brief: as §1
# windgrass = experiment: Test D preemergence; type: in vivo, Apera spica-venti; settings: Apera spica-venti, pre-emergence
# Method in brief: as §1
# blackgrass [2] = experiment: Test D postemergence; type: in vivo, Alopecurus myosuroides; settings: Alopecurus myosuroides, post-emergence, Postemergence, scale 0 to 100 (0 no effect, 100 complete control), read-out: Plant response rating, Blackgrass
# Method in brief: as §1
# winter barley = experiment: Test D preemergence; type: in vivo, Hordeum vulgare; settings: Hordeum vulgare, pre-emergence
# Source text: (§2) Seeds of plant species selected from bluegrass (annual bluegrass, Poa annua), blackgrass (Alopecurus myosuroides), canarygrass (littleseed canarygrass, Phalaris minor), chickweed (common chickweed, Stellaria media), galium (catchweed bedstraw, Galium aparine), bromegrass, downy (downy bromegrass, Bromus tectorum), field poppy (Papaver rhoeas), field violet (Viola arvensis), green foxtail (Setaria viridis), deadnettle (henbit deadnettle, Lamium amplexicaule), Italian ryegrass (Lolium multiflorum), kochia (Kochia scoparia), lambsquarters (Chenopodium album), oilseed rape (Brassica napus), pigweed (Amaranthus retroflexus), chamomile (scentless chamomile, Matricaria inodora), Russian thistle (Salsola kali), speedwell (bird's-eye speedwell, Veronica persica), spring barley (Hordeum vulgare), spring wheat (Triticum aestivum), wild buckwheat (Polygonum convolvulus), wild mustard (Sinapis arvensis), wild oat (Avena fatua), wild radish (Raphanus raphanistrum), windgrass (Apera spica-venti), winter barley (Hordeum vulgare), and winter wheat (Triticum aestivum) were planted into a silt loam soil and treated preemergence with test chemicals formulated in a non-phytotoxic solvent mixture which included a surfactant.
# (§3) At the same time, these species were planted in pots containing Redi-Earth® planting medium (Scotts Company, 14111 Scottslawn Road, Marysville, Ohio 43041) comprising spaghnum peat moss, vermiculite, wetting agent and starter nutrients and treated with postemergence applications of the test chemicals formulated in the same manner. Plants ranged in height from 2 to 18 cm (1- to 4-leaf stage). Treated plants and controls were maintained in a controlled growth environment for 7 to 21 days after which time all species were compared to controls and visually evaluated. Plant response ratings, summarized in Table D, are based on a scale of 0 to 100 where 0 is no effect and 100 is complete control. A dash (-) response means no test result.
# spring barley = experiment: Test D preemergence; type: in vivo, Hordeum vulgare; settings: Hordeum vulgare, pre-emergence
# Source text: as §2, §3
# bluegrass = experiment: Test D preemergence; type: in vivo, Poa annua; settings: Poa annua, pre-emergence
# Method in brief: as §1
# wild buckwheat = experiment: Test D preemergence; type: in vivo, Polygonum convolvulus; settings: Fallopia convolvulus, pre-emergence
# Method in brief: as §1
smiles,measurement,setting,value
"FC(F)(F)c1cnn(-c2ccccc2Oc2ncc(Br)cn2)c1 [Compound 18, 5-bromo-2-[2-[4-(trifluoromethyl)-1H-pyrazol-1-yl]phenoxy]pyrimidine]",pest or weed control at 16 g/ha,"pigweed; 16 g ai/ha, scale 0-100, read-out: Plant response rating, Pigweed",65%
same,pest or weed control at 31 g/ha,"pigweed; 31 g ai/ha, scale 0 to 100 (0 no effect, 100 complete control), read-out: Plant response rating, Pigweed",75%
same,pest or weed control at 62 g/ha,"pigweed; 62 g ai/ha, scale 0 to 100 (0 no effect, 100 complete control), read-out: Plant response rating, Pigweed",75%
same,pest or weed control at 125 g/ha,"pigweed; 125 g ai/ha, scale 0 to 100 (0 no effect, 100 complete control), read-out: Plant response rating, Pigweed",95%
same,pest or weed control at 250 g/ha,"pigweed; 250 g ai/ha, scale 0 to 100 (0 no effect, 100 complete control), read-out: Plant response rating, Pigweed",95%
same,pest or weed control at 16 g/ha,speedwell,50%
same,pest or weed control at 16 g/ha,"canarygrass; 16 g ai/ha, scale 0 (no effect) to 100 (complete control), read-out: Plant response rating, Canarygrass",10%
same,pest or weed control at 31 g/ha,"canarygrass; 31 g ai/ha, scale 0-100, read-out: Plant response rating, Canarygrass",25%
same,pest or weed control at 62 g/ha,"canarygrass; 62 g ai/ha, scale 0-100, read-out: Plant response rating, Canarygrass",65%
same,pest or weed control at 125 g/ha,"canarygrass; 125 g ai/ha, scale 0-100, read-out: Plant response rating, Canarygrass",100%
same,pest or weed control at 250 g/ha,"canarygrass; 250 g ai/ha, scale 0-100, read-out: Plant response rating, Canarygrass",100%
same,pest or weed control at 16 g/ha,"blackgrass [1]; 16 g ai/ha, scale 0 (no effect) to 100 (complete control), read-out: Plant response rating, Blackgrass",0%
same,pest or weed control at 31 g/ha,"blackgrass [1]; 31 g ai/ha, scale 0-100, read-out: Plant response rating, Blackgrass",5%
same,pest or weed control at 62 g/ha,"blackgrass [1]; 62 g ai/ha, scale 0-100, read-out: Plant response rating, Blackgrass",50%
same,pest or weed control at 125 g/ha,"blackgrass [1]; 125 g ai/ha, scale 0-100, read-out: Plant response rating, Blackgrass",100%
same,pest or weed control at 250 g/ha,"blackgrass [1]; 250 g ai/ha, scale 0-100, read-out: Plant response rating, Blackgrass",100%
same,pest or weed control at 16 g/ha,"chickweed; 16 g ai/ha, scale 0-100, read-out: Plant response rating, Chickweed",15%
same,pest or weed control at 31 g/ha,"chickweed; 31 g ai/ha, scale 0 to 100 (0 no effect, 100 complete control), read-out: Plant response rating, Chickweed",40%
same,pest or weed control at 62 g/ha,"chickweed; 62 g ai/ha, scale 0 to 100 (0 no effect, 100 complete control), read-out: Plant response rating, Chickweed",45%
same,pest or weed control at 125 g/ha,"chickweed; 125 g ai/ha, scale 0 to 100 (0 no effect, 100 complete control), read-out: Plant response rating, Chickweed",60%
same,pest or weed control at 250 g/ha,"chickweed; 250 g ai/ha, scale 0 to 100 (0 no effect, 100 complete control), read-out: Plant response rating, Chickweed",95%
same,pest or weed control at 16 g/ha,"windgrass; 16 g ai/ha, scale 0 (no effect) to 100 (complete control), read-out: Plant response rating, Windgrass",5%
same,pest or weed control at 31 g/ha,"windgrass; 31 g ai/ha, scale 0 (no effect) to 100 (complete control), read-out: Plant response rating, Windgrass",20%
same,pest or weed control at 62 g/ha,"windgrass; 62 g ai/ha, scale 0-100, read-out: Plant response rating, Windgrass",75%
same,pest or weed control at 125 g/ha,"windgrass; 125 g ai/ha, scale 0-100, read-out: Plant response rating, Windgrass",100%
same,pest or weed control at 250 g/ha,"windgrass; 250 g ai/ha, scale 0-100, read-out: Plant response rating, Windgrass",100%
same,pest or weed control at 62 g/ha,blackgrass [2]; 62 g ai/ha,15%
same,pest or weed control at 16 g/ha,blackgrass [2]; 16 g ai/ha,10%
same,pest or weed control at 31 g/ha,blackgrass [2]; 31 g ai/ha,15%
same,pest or weed control at 125 g/ha,blackgrass [2]; 125 g ai/ha,20%
same,pest or weed control at 250 g/ha,blackgrass [2]; 250 g ai/ha,35%
same,plant injury at 16 g/ha,"winter barley; 16 g ai/ha, scale 0 (no effect) to 100 (complete control), read-out: Plant response rating, Barley, Winter",0%
same,plant injury at 31 g/ha,"winter barley; 31 g ai/ha, scale 0-100, read-out: Plant response rating, Barley, Winter",10%
same,plant injury at 62 g/ha,"winter barley; 62 g ai/ha, scale 0-100, read-out: Plant response rating, Barley, Winter",15%
same,plant injury at 125 g/ha,"winter barley; 125 g ai/ha, scale 0-100, read-out: Plant response rating, Barley, Winter",15%
same,plant injury at 250 g/ha,"winter barley; 250 g ai/ha, scale 0-100, read-out: Plant response rating, Barley, Winter",25%
same,plant injury at 16 g/ha,"spring barley; 16 g ai/ha, scale 0 (no effect) to 100 (complete control), read-out: Plant response rating, Barley, Spring",0%
same,plant injury at 31 g/ha,"spring barley; 31 g ai/ha, scale 0-100, read-out: Plant response rating, Barley, Spring",5%
same,plant injury at 62 g/ha,"spring barley; 62 g ai/ha, scale 0-100, read-out: Plant response rating, Barley, Spring",5%
same,plant injury at 125 g/ha,"spring barley; 125 g ai/ha, scale 0-100, read-out: Plant response rating, Barley, Spring",0%
same,plant injury at 250 g/ha,"spring barley; 250 g ai/ha, scale 0-100, read-out: Plant response rating, Barley, Spring",30%
same,pest or weed control at 16 g/ha,"bluegrass; 16 g ai/ha, scale 0 (no effect) to 100 (complete control), read-out: Plant response rating, Bluegrass",10%
same,pest or weed control at 31 g/ha,"bluegrass; 31 g ai/ha, scale 0-100, read-out: Plant response rating, Bluegrass",30%
same,pest or weed control at 62 g/ha,"bluegrass; 62 g ai/ha, scale 0-100, read-out: Plant response rating, Bluegrass",70%
same,pest or weed control at 125 g/ha,"bluegrass; 125 g ai/ha, scale 0-100, read-out: Plant response rating, Bluegrass",100%
same,pest or weed control at 250 g/ha,"bluegrass; 250 g ai/ha, scale 0-100, read-out: Plant response rating, Bluegrass",100%
same,pest or weed control at 16 g/ha,"wild buckwheat; 16 g ai/ha, scale 0 (no effect) to 100 (complete control), read-out: Plant response rating, Buckwheat, Wild",10%
same,pest or weed control at 31 g/ha,"wild buckwheat; 31 g ai/ha, scale 0-100, read-out: Plant response rating, Buckwheat, Wild",70%
same,pest or weed control at 62 g/ha,"wild buckwheat; 62 g ai/ha, scale 0-100, read-out: Plant response rating, Buckwheat, Wild",80%
same,pest or weed control at 125 g/ha,"wild buckwheat; 125 g ai/ha, scale 0-100, read-out: Plant response rating, Buckwheat, Wild",100%
same,pest or weed control at 250 g/ha,"wild buckwheat; 250 g ai/ha, scale 0-100, read-out: Plant response rating, Buckwheat, Wild",100%
